Calls of active or inactive are those of the source.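 Rule for the calls: active = compounds giving half or more protection of infected cells from virus-caused growth loss, again on retest; inactive = the rest.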
Tested on: CEM cells HIV-1 protection, formazan growth assay
Assay: NCI AIDS Antiviral Assay
Conditions: for IC50: measured here: growth of uninfected CEM cells
Summary of the method: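 Five concentrations of each compound were applied to infected and uninfected human CEM cells. Protection from HIV-1 was judged from growth measured with a soluble formazan assay.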

SMILES	EC50	IC50	outcome
CC(C)(C)OC(=O)NC(Cc1ccccc1)C(=O)N[C@H]1c2ccsc2/C(=N/O)[C@H]1O (stereo partly drawn)	> 200 µM	91.2 µM	
Cc1cc2c(cc1C)[n+](=O)cc(C(=O)C/C(=N/NC(=S)NN)C(=O)Nc1cccc(C(F)(F)F)c1)n2[O-]	> 126 µM	> 126 µM	
O=C(O)CN(c1cccc(Cl)c1)S(=O)(=O)c1ccccc1			inactive
COc1cc(=O)oc2c3c(ccc12)OC(C)(C)[C@H](OC(=O)C12CCC(C)(C(=O)O1)C2(C)C)[C@@H]3OC(=O)C12CCC(C)(C(=O)O1)C2(C)C (stereo partly drawn)	0.257 µM	51.3 µM	
O=C(Cn1c2ccc(Br)cc2c2nc3ccccc3nc21)N/N=C/c1ccccc1	> 100 µM	> 100 µM	
C=C1C[C@@H]2O[C@H]3[C@H]4[C@@H](C[C@@H](C)[C@@H](OC(C)=O)[C@H]42)[C@@H](C)CO[C@@]3(C)[C@H](OC(C)=O)C[C@H]1O	> 200 µM	51.3 µM	
CSC1=C(C(=O)Nc2ccc(Cl)cc2)C(N)=NC1=O	> 100 µM	74.1 µM	
CC1(C)SCCCCCCCSC(C)(C)SCCCCCCCS1	> 63.1 µM	> 63.1 µM	
CCCCCCC(=O)C/C(=N/NC(N)=S)C(=O)NC1C2CC3CC(C2)CC1C3 (stereo not drawn)	> 219 µM	> 219 µM	
O=C1COC(c2ccccc2O)=NN1CCCN1CCCC1	> 525 µM	372 µM	
O=C1CC2C(=O)NC(=O)C2C(=O)N1 (stereo not drawn)	> 1380 µM	> 1380 µM	
COc1cc2ccc1OCc1cccc(n1)COc1ccc(cc1OC)C=NCCNCCNCCN=C2	> 200 µM	110 µM	
Cc1cn(C2CC(ON)C(CO)O2)c(=O)[nH]c1=O (stereo not drawn)	> 200 µM	> 200 µM	
Cc1cc(=O)n(CC(=O)O)c2ccccc12	> 200 µM	105 µM	
CCC(C)N1CN(c2ccccc2)C2(CCN(CC3COc4ccccc4O3)CC2)C1=O (stereo not drawn)	> 200 µM	29.5 µM	
COC(=O)C1CC(C=[N+](C)C)=C(SC)N1 (stereo not drawn)	> 200 µM	> 200 µM	
Brc1ccc(-c2nc(-c3ccc(Br)cc3)n(-c3ccccc3)n2)cc1	> 200 µM	93.3 µM	
COc1cccc(C=O)c1[O-].COc1cccc(C=O)c1[O-].[Co+2]	> 186 µM	28.2 µM	
CCCCCCCCCCCCCNC1=C(O)c2ccccc2C(=O)C1=O			inactive
CCOC(=O)c1cc(=O)n(C)c(=O)n1C			inactive
COC1(OC)c2no[n+]([O-])c2CCC1O (stereo not drawn)	> 200 µM	> 200 µM	
O=c1cc(-c2ccccc2)oc2cccc(O)c12	> 200 µM	> 200 µM	

SMILES	EC50	IC50	outcome
Cc1c2n(c(=O)[nH]c1=O)C1OC(CO)C(O2)C1N=[N+]=[N-] (stereo not drawn)	135 µM	> 200 µM	
Nc1nc2cnc(COc3ccccc3)nc2c(=O)[nH]1	> 200 µM	> 200 µM	
CC(NNC(=O)c1ccncc1)c1cccc(C(F)(F)F)c1 (stereo not drawn)	> 200 µM	195 µM	
CCC(=O)Oc1ccc2c(=O)c(-c3ccc(OC)cc3)c(CC)oc2c1	> 200 µM	25.1 µM	
CC1CCC2C(C)C3C(CC4C5CC=C6CC(O)CCC6(C)C5CCC43COC(=O)c3ccccc3)N2C1 (stereo not drawn)	> 69.2 µM	> 69.2 µM	
CCOC(=O)C1=C(C)CC2C(=O)OC(=O)C2C1(C)C (stereo not drawn)			inactive
O=C(O)CCNS(=O)(=O)c1ccc2ccccc2c1			inactive
COc1cc2oc(-c3ccc(O)cc3O)c(CC=C(C)C)c(=O)c2c(O)c1/C=C/C(C)C	> 200 µM	4.79 µM	
Cc1ccc(NC(=O)/C(C#N)=C/c2ccccc2)c(C)c1	> 24.5 µM	> 24.5 µM	
O=C(NC/C=C/Br)Nc1cnc2ccccc2c1	> 200 µM	151 µM	
Cc1cc2c(C(C)C)c(O)c(O)c(C=Nc3cccc(C(F)(F)F)c3)c2c(O)c1-c1c(C)cc2c(C(C)C)c(O)c(O)c(C=Nc3cccc(C(F)(F)F)c3)c2c1O			inactive
COc1cc(/C=C/c2cc(O)cc(C3OC(CO)C(O)C(O)C3O)c2)ccc1O (stereo not drawn)			inactive
C=CCOc1ccc(C2c3c([nH][nH]c3=O)CC(O)(OCC)C2C(=O)OCC)cc1OC (stereo not drawn)	> 200 µM	> 200 µM	
CCOC(=O)c1cc2nc(NC(=O)c3ccccc3)sc2n1C	> 200 µM	> 200 µM	
C=C1C(=O)OC2C1CC[C@H](C)C1(O)C(O)CC(=O)[C@@]21C (stereo partly drawn)			inactive
O=C(O)c1ccccc1C(=O)NC(Cc1ccccc1)(C(=O)O)C(=O)O	> 200 µM	> 200 µM	
CC(=O)Oc1ccc2ccccc2c1Br	> 200 µM	112 µM	
COc1ccc(N2C(=O)C3c4[nH]c5ccccc5c4C4CCC(C(C)C)CC4C3C2=O)cc1 (stereo not drawn)	> 100 µM	93.3 µM	
N.N.N.N.O=S(=O)([O-])[O-].[Co+3].[OH3+].[OH3+]	> 39.8 µM	38.9 µM	
COc1ccc(Cc2c3cc(O)c(=O)cc-3ccn2C)cc1OC	> 15.8 µM	8.13 µM	
COCCOCCOC(=O)C(CO)(CC(CO)(C(C)=O)C(=O)OCCOCCOC)C(C)=O (stereo not drawn)	> 200 µM	> 200 µM	
CC(=O)OCC1OC(n2c(=O)[nH]c(=O)c3n[nH]nc32)C(OC(C)=O)C(OC(C)=O)C1OC(C)=O (stereo not drawn)	> 269 µM	> 269 µM	

SMILES	EC50	IC50	outcome
N#CCc1ccccc1C(=O)O	> 1550 µM	891 µM	
Cc1cc(N(CCC#N)CCC#N)ccc1/C=C/C(=O)Nc1ccccc1Cl	> 457 µM	> 457 µM	
CCOC(=O)C(NC(=O)CC)(Nc1ccc(S(=O)(=O)Nc2nc(C)cc(C)n2)cc1)C(F)(F)F (stereo not drawn)	> 200 µM	> 200 µM	
Cc1n[nH]c(=O)n1/N=C/c1ccc([N+](=O)[O-])cc1	> 200 µM	> 100 µM	
COC1(OC)CCCc2c1no[n+]2[O-]	> 200 µM	> 200 µM	
Nc1nc(CCC(=O)Nc2cccc(C(F)(F)F)c2)cc(-c2ccc3ccccc3c2)n1	> 575 µM	> 575 µM	
[Cu+2].[Cu+2].[Cu+2].[Cu+2].[O-]CCN(CC[OH2+])CC[OH2+].[O-]CCN(CC[OH2+])CC[OH2+].[O-]CCN(CC[OH2+])CC[OH2+].[O-]CCN(CC[OH2+])CC[OH2+]	> 200 µM	4.79 µM	
C/C(=N\Nc1ccccc1)C(CN(C)C)C(c1ccccc1)c1c(O)c2ccccc2oc1=O (stereo not drawn)	> 27.5 µM	> 27.5 µM	
CCC1Oc2c(CC=C(C)C)c(O)c(C(O)C(C)CC)c3oc(=O)cc1c23 (stereo not drawn)	> 200 µM	26.3 µM	
CCCCC(=O)Oc1c(Cl)cc(C(=CCC[C@H]2CC[C@@]3(C)[C@@H](CC[C@@H]4[C@@H]3CC[C@]3(C)[C@@H](C(C)CCCC(C)C)CC[C@@H]43)C2)c2cc(Cl)c(OC(=O)CCCC)c(C(=O)O)c2)cc1C(=O)O (stereo partly drawn)	74.1 µM	> 100 µM	
S=c1[nH]c2ccccc2s1.[Zn+2]	> 26.3 µM	> 26.3 µM	
CCN(CC)CCNC(=O)c1ccccc1Nc1c(Cl)cccc1Cl	> 200 µM	27.5 µM	
NNC(=O)C(O)C(O)C(=O)NN (stereo not drawn)	> 1410 µM	631 µM	
CC[N+]1(C2=C([O-])C(F)(F)C2=O)CCCCC1	> 200 µM	> 200 µM	
COc1ccc(/C=C(/C#N)c2ccccc2)cc1	> 200 µM	2.09 µM	
COC(F)(F)C12CC3CC(CC(C3)C1)C2			inactive
N#CCc1nc(C#N)c(N)o1	51.3 µM	> 200 µM	
Cc1cc(NS(=O)(=O)c2ccc(Nc3c4ccccc4nc4c(C(=O)Nc5ccc(S(=O)(=O)N=C(N)N)cc5)ccc(Cl)c34)cc2)no1	> 51.3 µM	> 51.3 µM	
N#Cc1cc2c(cc1C#N)SCCSCCCSCCS2			inactive
Cc1ccn2c(N=O)c(-c3ccccc3)nc2c1	135 µM	> 200 µM	
Clc1ccc2nc3nc(-c4ccccc4)c(-c4ccccc4)nc3nc2c1	> 19.5 µM	> 19.5 µM	
Cc1cc(N(CCC#N)CCC#N)ccc1/C(N=Nc1ccccc1)=N\NC(=O)c1cc(Cl)ccc1O	> 200 µM	28.8 µM	

SMILES	EC50	IC50	outcome
CO[C@H](c1ccccc1)[C@H](C)N(C)c1ccc2ccccc2c1C1=NC(C)(C)CO1	> 64.6 µM	> 64.6 µM	
CC1=CC(/C=C(\C)CCCc2ccoc2)C2(OC(=O)C(C)=C2O)[C@H]2C1CC[C@@H]2C (stereo partly drawn)			inactive
CCOC(=O)C(Cc1ccc(N=NN(C)C)cc1)NC(=O)CC1c2ccccc2-c2ccccc21 (stereo not drawn)	> 11 µM	6.46 µM	
COC(=O)[C@@]1(C)/C(=N/NS(=O)(=O)c2ccc(C)cc2)CCC[C@@H]1C	> 269 µM	219 µM	
O=C1Nc2ccc([N+](=O)[O-])c3c(C(=O)O)ccc1c23	> 200 µM	141 µM	
C#CC1(O)CCC2[C@@H]3CCc4cc(Oc5nc(F)nc(-c6c7ccccc7c(SCC)n6CCC)n5)ccc4C3CC[C@@]21C (stereo partly drawn)	> 6.17 µM	> 6.17 µM	
CN(C)C(=NCc1ccccc1)NC#N	> 1230 µM	> 1230 µM	
S=C(NCCNC(=S)[S][Sn]([c]1ccccc1)([c]1ccccc1)[c]1ccccc1)[S][Sn]([c]1ccccc1)([c]1ccccc1)[c]1ccccc1	> 0.1 µM	0.0646 µM	
Oc1ccc(N=C2CCC(=C(c3ccccc3)c3ccc(Nc4ccc(O)cc4)cc3)CC2)cc1	> 200 µM	20.9 µM	
Cc1ccc2[nH]c3c(ncc4[nH]c5ccccc5c43)c2c1	> 19.1 µM	3.89 µM	
CCOC(=O)CC[C@H](NC(=O)c1nc[nH]c1[N+](=O)[O-])C(=O)OCC	> 200 µM	> 200 µM	
CC(C)C1CNC2N1C(=O)C2(C)OCc1ccccc1 (stereo not drawn)	> 251 µM	155 µM	
O=C(Nc1ccccn1)Nc1cc(C(F)(F)F)ccc1Cl	> 200 µM	182 µM	
COC(=O)Nc1nc2ccc(C(=O)c3ccc(F)cc3)cc2[nH]1	> 2 µM	0.0871 µM	
CCN(CC)CC(O)CNc1c2ccc([N+](=O)[O-])cc2nc2cc(OC)c(OC)cc12 (stereo not drawn)			inactive
COc1cc(C)c2c(=O)c3ccccc3n(C)c2c1	2.82 µM	30.2 µM	
COc1ccc(CCNC(=O)Cc2ccccc2CO)cc1OC	> 200 µM	> 200 µM	
COc1nc(N)c(C#N)c(C#N)c1C#N	> 200 µM	> 200 µM	
COc1cccc(/C=N/[N-]C(=O)c2ccncc2)c1[O-].[Cu+2].[OH3+]	> 10.7 µM	> 10.7 µM	
